# Source: patent US10046046B2, “Amino sphingoglycolipid analogues” (Victoria Link Limited, priority 2014, dated 2018)
# “Also recorded” adds a separate entry of the source. Square brackets hold non-standard residues; d marks the D form. Peptide text beside a SMILES is read from it. * marks the point of attachment. ξ: configuration not given here. X1 = CCCCCCCCCCCCCCCCCCCCCCCCCC(=O)N[C@@H](CO[C@H]1OC(CNC(=O)OCOC(=O)CC/C(C)=N/OCC(=O)*)[C@H](O)[C@H](O)C1O)[C@H](O)[C@H](O)CCCCCCCCCCCCCC; ξF = NC(Cc1ccccc1)C(=O)O
# How the values were obtained:
# [1] = tested on: CD11c+ dendritic cells; assay: CD86 expression on splenic dendritic cells; type: in vivo, C57BL/6 mice; conditions: 0.571 nmol intravenously, spleens removed 20 h later, n=3, FIG. 3
# Procedure: Groups of C57BL/6 mice (n=3) are injected intravenously with 0.571 nmol of the indicated compounds and then the spleens removed 20 h later for the analysis of CD86 expression on CD11c^+ dendritic cells by antibody labelling and flow cytometry. Mean fluorescence index (MFI)±SEM are presented. *P<0.05, *P<0.01, ***P<0.001
# Antibody staining and flow cytometry is used to examine the expression of maturation markers on dendritic cells in the spleen following injection of compounds of the invention (0.23 nmol). Splenocyte preparations are prepared by gentle teasing of splenic tissue through gauze in Iscove's Modified Dulbecco's Medium with 2 mM glutamine, 1% penicillin-streptomycin, 5×10^-5 M 2-mercapto-ethanol and 5% fetal bovine serum (all Invitrogen, Auckland, New Zealand), followed by lysis of red blood cells with RBC lysis buffer (Puregene, Gentra Systems, Minneapolis, Minn., USA). Antibody staining is performed in PBS 2% fetal bovine serum and 0.01% sodium azide. The anti-FcgRII monoclonal antibody 2.4G2 is used at […] to inhibit non-specific staining. Monoclonal antibodies (all BD Biosciences Pharmingen, San Jose, Calif., USA) are used to examine expression of the maturation markers CD40, CD80 and CD86 on CD11c+ dendritic cells.
# [2] = tested on: NKT cell activity (CD86 on B cells in the peripheral blood); assay: CD86 expression on peripheral blood B cells as readout of NKT cell activity; type: in vivo, C57BL/6 mice; conditions: 0.23 nmol intravenously, blood collected 20 h later, n=3, FIG. 1
# Procedure: Groups of C57BL/6 mice (n=3) are injected intravenously with 0.23 nmol of the indicated glycolipid compounds and then the blood samples collected 20 h later for the analysis of CD86 expression on CD45 (B220)+B cells by antibody labelling and flow cytometry. Mean fluorescence index (MFI)±SEM are presented, *P<0.05, *P<0.01, ***P<0.001.
# Each compound of the invention is supplied as formulated product (see example 3), and diluted in phosphate-buffered saline (PBS) for injection (0.23 nmol/mouse) by intravenous injection into the lateral tail vein. In humans the expected therapeutic dose lies in the 50-4800 (μg/m^2) range (Giaccone, Punt et al. 2002). Note, 0.23 nmol in a mouse is a human equivalent dose of 30 μg/m^2 for α-GalCer.
# All antibody labelling is performed on ice in FACS buffer (PBS supplemented with 1% FCS, 0.05% sodium azide, and 2 mM EDTA). Non-specific FcR-mediated antibody staining is blocked by incubation for 10 min with anti-CD16/32 Ab (24G2, prepared in-house from hybridoma supernatant). Flow cytometry is performed on a BD Biosciences FACSCalibur or BD LSRII SORP flow cytometer with data analysis using FlowJo software (Tree Star, Inc., OR, USA).
# Antibody staining and flow cytometry are used to examine the expression of the maturation markers CD86 on peripheral blood B cells following injection of compounds of the invention. […]
# [3] = tested on: SIINFEKL-specific T cells; assay: Peptide-specific T cell proliferation in vivo (OT-1 transfer); parameters: species or system C57BL/6 mice; conditions: intravenous vaccination one day after transfer of 10,000 OT-1 cells, equivalent molar dose of SIINFEKL, blood after seven days, FIG. 2
# Procedure: The compounds are injected to give the equivalent molar dose of SIINFEKL (SEQ ID NO: 262) peptide in each case. To increase sensitivity of the assay, all mice are initially donated a cohort of 10,000 SIINFEKL-specific T cells from a transgenic mouse encoding a T cell receptor for this antigen (OT-1 mice) by intravenous injection of the cells one day before the vaccines are administered. […] It is therefore possible to enumerate SIINFEKL-specific T cells in blood by flow cytometry using antibodies for CD45.1 together with antibodies for the transgenic T cell receptor (Vα2). Control animals (naïve) are injected with the diluent phosphate-buffered saline (PBS). […] Each dot represents a different animal; mean per treatment group±SEM are presented. *P<0.05, *P<0.01, ***P<0.001
# Pooled lymph node cell suspensions are prepared from animals of a cross between OT-1 mice, which express a transgenic T cell receptor (TCR) specific for the ovalbumin epitope SIINFEKL (SEQ ID NO: 262)-in the context of H-2K^b molecules, and B6.SJL-Ptprc^a Pepc^b/BoyJ mice, which are congenic with C57BL/6 mice for the CD45.1^+ marker. The samples are enriched for CD8^+ cells using antibody coated magnetic beads (Miltenyi), and then transferred into C57BL/6 mice (1×10^4 per mouse). Groups of recipient animals (n=5) are immunized with compounds of the invention one day later. […]
# [4] = Ebensen, Link et al. 2007; cited from earlier work
# [5] = tested on: human NKT cells; conditions: Kawano, Cui et al. 1997; cited from earlier work
# [6] = tested on: mouse NKT cells; conditions: Kawano, Cui et al. 1997; cited from earlier work
# [7] = tested on: syngeneic splenocytes loaded ex vivo with SIINFEKL; assay: Peptide-specific T cell-mediated cytotoxicity in vivo (VITAL assay); parameters: species or system mice; conditions: 0.571 nmol intravenously, targets injected 7 days after vaccination, 5 animals per group, FIG. 4
# Procedure: The compounds are injected to give the equivalent molar dose of SIINFEKL (SEQ ID NO: 262) peptide, in each case of 0.571 nmol. Flow cytometry is used to assess the killing of target cells comprised of syngeneic splenocytes loaded ex vivo with 5 μM SIINFEKL (SEQ ID NO: 262) injected intravenously 7 days after vaccination. To discriminate the targets from host tissue, the injected cells are labelled with the fluorescent dye carboxyfluorescein succinimidyl ester (CFSE). A cohort syngeneic splenocytes (without peptide) labelled with the fluorescent dye cell tracker orange are also injected to serve as controls. Killing is defined as the percentage of peptide-loaded targets killed relative to control cells. Each treatment group contained 5 animals. Control animals are injected with the diluent phosphate-buffered saline (PBS). […] Mean percentage of killing per group±SEM are shown. ***p<0.001
# The cytotoxic capacity of induced CD8^+ T cell responses is measured by VITAL assay (Hermans, Silk et al. 2004). […] Specific lysis of the peptide-loaded targets is monitored by flow cytometry of blood or spleen samples 24 h later. Mean percent survival of peptide-pulsed (CFSE+) targets is calculated relative to that of the control population (CTO+), and cytotoxic activity is expressed as percent specific lysis (100−mean percent survival of peptide-pulsed targets).
# [8] = tested on: B16.OVA melanoma cells; assay: Anti-tumour activity against subcutaneous B16.OVA tumours; type: in vivo, C57BL/6 mice; conditions: 0.571 nmol intravenously five days after tumour challenge, n=5, FIG. 5
# Procedure: Progression of subcutaneous B16.OVA tumours is monitored in animals treated five days after tumour challenge with intravenous CI-017 or CN159 peptide and α-GalCer or with PBS. The mean tumour sizes per group (n=5)±SEM are shown.
# Groups of C57BL/6 mice (n=5) receive a subcutaneous injection into the flank of 1×10^5 B16.OVA melanoma cells, which express a cDNA encoding the chicken ovalbumin (OVA) sequence. The different groups are treated five days later by intravenous injection of one of the following; CI-017 (0.571 nmol), peptide CN159 (0.571 nmol) mixed with α-GalCer (0.571 nmol), or PBS. Mice are monitored for tumour growth every 3-4 days, and tumour size for each group calculated as the mean of the products of bisecting diameters (±SEM). Measurements are terminated for each group when the first animal develops a tumour exceeding 200 mm^2.
molecule,measurement,setting,value
CCCCCCCCCCCCCCCCCCCCCCCCCC(=O)N[C@@H](CO[C@H]1OC(CN)[C@H](O)C(O)C1O)[C@H](O)[C@H](O)CCCCCCCCCCCCCC (some centres unmarked) [CN168],CD86 expression on CD11c+ dendritic cells in spleen (mean fluorescence index),[1],potently activated dendritic cells
"CCCCCCCCCCCCCCCCCCCCCCCCCC(=O)N[C@@H](CO[C@H]1OC(CNC(=O)OCOC(=O)CC/C(C)=N/OCC(=O)N[C@@H](Cc2ccccc2)C(=O)NC(Cc2ccccc2)C(=O)N[C@@H](CCCNC(=N)N)C(=O)N[C@@H](CCCCN)C(=O)N[C@@H](CO)C(=O)N[C@H](C(=O)N[C@H](C(=O)N[C@@H](CC(N)=O)C(=O)N[C@@H](Cc2ccccc2)C(=O)N[C@@H](CCC(=O)O)C(=O)N[C@@H](CCCCN)C(=O)N[C@@H](CC(C)C)C(=O)O)[C@@H](C)CC)[C@@H](C)CC)[C@H](O)[C@H](O)C1O)[C@H](O)[C@H](O)CCCCCCCCCCCCCC (stereo partly drawn) [CN169, (2S,3S,4R)-1-(6-Deoxy-6-(4-((2-(FFRKSIINFEKL)-2-(oxo)ethoxyimino)pentanoyloxy)methoxycarbonylamino)-α-D-galactopyranosyloxy)-2-hexacosanoylamino-3,4-octadecandiol] (X1-F[ξF]RKSIINFEKL-OH)",CD86 expression on CD45 (B220)+ B cells in peripheral blood (mean fluorescence index),[2],potently activate B cells
same,SIINFEKL-specific T cells (Vα2+ CD45.1+) in blood,[3],increased antigen-specific T cell response; also recorded: larger population of peptide-specific T cells; also recorded: larger population of SIINFEKL-specific T cells
"CCCCCCCCCCCCCCCCCCCCCCCCCC(=O)N[C@@H](CO[C@H]1O[C@H](CO)[C@H](O)[C@H](O)[C@H]1O)[C@H](O)[C@H](O)CCCCCCCCCCCCCC [α-GalCer, α-Galactosylceramide]",Solubility,[4],poor solubility
same,Activation of human NKT cells,[5],potently activates
same,Activation of mouse NKT cells,[6],potently activates
"(2S,3S,4R)-1-(6-Deoxy-6-(4-β-(FFRKSIINFEKL)-3-oxopropyl)-1H-1,2,3-triazol-1-yl)hexanoyl)-(N-Val-Cit-4-aminobenzyloxycarbonylamino)-1-(α-D-galactopyranosyloxy))-2-hexacosanoylamino-3,4-octadecandiol [CI-017]",SIINFEKL-specific cytotoxicity (percentage of peptide-loaded targets killed relative to control cells),[7],greater SIINFEKL (SEQ ID NO: 262)-specific cytotoxicity
same,Anti-tumour activity (mean tumour size),[8],superior anti-tumour activity
